In patent publication US20240398781A1, “SPIROCYCLIC CYCLIC MODULATORS OF CHOLESTEROL BIOSYNTHESIS AND THEIR USE FOR PROMOTING REMYELINATION” (GENENTECH, INC., priority 2021, published 2024):
Where two headings read alike, the source gives them in different places.

Experiments:
EpiSC-derived OPCs = assay: In vitro phenotypic screening of OPCs (MBP staining, high-content imaging); format: cell-based, mouse; settings: percentage of MBP+ oligodendrocytes, 3 days, 0.5 nM to 1000 nM, read-out: OPC EC50
Method in brief: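 Readout: high-content imaging of MBP immunostaining around DAPI nuclei, giving percent oligodendrocytes, with EC50 from a Levenberg-Marquardt Hill fit. Epiblast stem cell-derived OPCs were plated on laminin at 150,000/cm^2 in growth-factor-free N2B27. They were exposed 3 days to an 8-point series, 0.5-1000 nM final, in two or more independent platings.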

[1] = test system: EBP (zymostenol accumulation in EpiSC-derived OPCs); assay: GC/MS-based sterol profiling, zymostenol accumulation in OPCs; format: cell-based, mouse; settings: Mus musculus, 24 h, EpiSC-derived OPCs, 24 hr treatment, 8 doses from 0.15 nM to 333 nM; read-out: Zymostenol GCMS EC50
Method in brief: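 EpiSC-derived OPCs (100,000/well) were treated 24 h in N2B27 without growth factors. Sterols were TMS-derivatized and analysed by GC/MS full-scan EI, quantified against cholesterol-d7. Zymostenol was normalized to the level after 24 h with 100 nM positive control reference.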

[2] = target: human emopamil binding protein and human 7-dehydrocholesterol reductase co-expressing cells (hEBP-DHCR7 membrane) (Homo sapiens (Human), UniProt Q15125); assay: Radioligand filter binding assay on hEBP-DHCR7 membrane; settings: [3H]-(S)-6-(2-Methyl-3-(6-(trifluoromethyl)pyridin-3-yl)propyl)-2-thia-6-azaspiro[3.4]octane 2,2-dioxide radioligand, HEK293 membrane co-expressing hEBP and hDHCR7
human emopamil binding protein and human 7-dehydrocholesterol reductase co-expressing cells (hEBP-DHCR7 membrane), sequence (Q15125 whole entry): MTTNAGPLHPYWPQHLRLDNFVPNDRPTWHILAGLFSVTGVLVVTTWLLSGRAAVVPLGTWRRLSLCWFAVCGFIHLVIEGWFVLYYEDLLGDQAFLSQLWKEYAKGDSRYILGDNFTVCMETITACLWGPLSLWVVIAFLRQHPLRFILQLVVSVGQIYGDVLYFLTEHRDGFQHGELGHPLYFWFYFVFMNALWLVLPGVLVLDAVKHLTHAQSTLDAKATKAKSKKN
Method in brief: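 HEK293 cells transiently co-expressing human EBP and DHCR7 supplied whole-cell membranes (10 μg/well), incubated 3 h at 22 °C with [3H]-labelled spiro-octane dioxide ligand (added at 25 nM) and compound (0.06-5000 nM final, 8 doses, n=2). Bound ligand was collected on PEI-treated GF/B filters and counted by scintillation. IC50 was Hill-fitted from % inhibition and reported as Ki.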

| EC50 (EpiSC-derived OPCs; Mus musculus, 72 h) [nM] | EC50 [1] [nM] | Ki [2] [nM] | EC50 (EpiSC-derived OPCs) [nM] | SMILES |
| --- | --- | --- | --- | --- |
| 43 | 22 | 170 |  | O=S1(=O)CCC2(CCN([C@H]3CC[C@@H](c4ccc(C(F)(F)F)nc4)CC3)C2)CC1 [Compound 95B, 2-((1s,4s)-4-(6-(trifluoromethyl)pyridin-3-yl)cyclohexyl)-8-thia-2-azaspiro[4.5]decane 8,8-dioxide] |
| 8.9 | 4.1 | 14 |  | CC(C)c1nc(C(F)(F)F)ccc1[C@H]1CC[C@H](N2CCC3(C2)CS(=O)(=O)C3)CC1 [Compound 65A, 6-((1r,4r)-4-(2-isopropyl-6-(trifluoromethyl)pyridin-3-yl)cyclohexyl)-2-thia-6-azaspiro[3.4]octane 2,2-dioxide] |
| 330 | 25 | 14 |  | O=S1(=O)CC2(CCN([C@H]3CCCN(c4ccc(C(F)(F)F)cc4)C3)CC2)C1 (single isomer, unassigned) [55B*] |
| 18 | 4 | 6.5 |  | O=S1(=O)CC2(CCN([C@H]3CC[C@H](c4ccc(F)c(F)c4)CC3)C2)C1 [Compound 70A, 6-((1r,4r)-4-(3,4-difluorophenyl)cyclohexyl)-2-thia-6-azaspiro[3.4]octane 2,2-dioxide] |
| 17 | 4.9 | 14.8 |  | O=S1(=O)CC2(CCN([C@H]3CC[C@@H](c4ccc(C(F)(F)F)cc4)C3)C2)C1 [Compound 1A, 6-((1S,3R)-3-(4-(trifluoromethyl)phenyl)cyclopentyl)-2-thia-6-azaspiro[3.4]octane 2,2-dioxide] |
| 76 | 17 | 494 |  | CC(C)(C)n1nc(C2CC2)nc1[C@H]1CC[C@@H](N2CCC3(C2)CS(=O)(=O)C3)C1 [Compound 74B, 6-((1R,3S)-3-(1-(tert-butyl)-3-cyclopropyl-1H-1,2,4-triazol-5-yl)cyclopentyl)-2-thia-6-azaspiro[3.4]octane 2,2-dioxide] |
| 120 | 45 | 670 |  | O=S1(=O)CC2(CCN(C3CC[C@H](c4nc(-c5cccc(C(F)(F)F)n5)nn4C4CC4)C3)CC2)C1 (stereo in doubt) [42D*, 7-((1R,3S)-3-(1-Cyclopropyl-3-(6-(trifluoromethyl)pyridin-2-yl)-1H-1,2,4-triazol-5-yl)cyclopentyl)-2-thia-7-azaspiro[3.5]nonane 2,2-dioxide] |
| 11 | 3.7 | 15 |  | CCc1nc(C(F)(F)F)ccc1[C@H]1CC[C@H](N2CCC3(C2)CS(=O)(=O)C3)CC1 [Compound 64A, 6-((1r,4r)-4-(2-ethyl-6-(trifluoromethyl)pyridin-3-yl)cyclohexyl)-2-thia-6-azaspiro[3.4]octane 2,2-dioxide] |
| 53 | 16 | 120 |  | O=S1(=O)CC2(CCN([C@@H]3CC[C@H](c4ccc(C(F)(F)F)nc4)C3)CC2)C1 (single isomer, unassigned) [57C*] |
| 15 | 5 | 8 |  | O=S1(=O)CC2(CCN([C@H]3CC[C@@H](c4ccc(F)c(F)c4)CC3)CC2)C1 [Compound 77B, 7-((1s,4s)-4-(3,4-difluorophenyl)cyclohexyl)-2-thia-7-azaspiro[3.5]nonane 2,2-dioxide] |
| 160 | 80 | 510 |  | CCn1nc(-c2ccc(C(F)(F)F)nc2)nc1[C@H]1CC[C@@H](N2CCC3(CC2)CS(=O)(=O)C3)CC1 (stereo in doubt) [43B*, (cis)-7-(-4-(1-ethyl-3-(6-(trifluoromethyl)pyridin-3-yl)-1H-1,2,4-triazol-5-yl)cyclohexyl)-2-thia-7-azaspiro[3.5]nonane 2,2-dioxide] |
| 22 | 5.8 | 41 |  | O=S1(=O)CC[C@@]2(CCCN([C@H]3CC[C@H](c4ccc(C(F)(F)F)cn4)CC3)C2)C1 (single isomer, unassigned) [68B*] |
| 2.4 | 1.1 | 12 |  | CC(C)n1nc(-c2cccc(C(F)(F)F)n2)cc1[C@H]1CC[C@H](N2CCC3(CC2)CS(=O)(=O)C3)C1 (single isomer, unassigned) [46D*] |
|  | 24 | 160 | 65 | O=S1(=O)CC2(CCN([C@@H]3CC[C@@H](c4ccc(C(F)(F)F)nc4)C3)CC2)C1 (single isomer, unassigned) [57A*] |
| 690 | 150 | 65 |  | O=S1(=O)CC2(CCN([C@@H]3CCC[C@@H](c4ccc(C(F)(F)F)nc4)C3)CC2)C1 (single isomer, unassigned) [56D*] |
| 27 | 8 | 125 |  | CCn1nc(-c2ccc(C(F)(F)F)nc2)nc1[C@H]1CC[C@H](N2CCC3(CC2)CS(=O)(=O)C3)CC1 (stereo in doubt) [43A*, (trans)-7-(-4-(1-Ethyl-3-(6-(trifluoromethyl)pyridin-3-yl)-1H-1,2,4-triazol-5-yl)cyclohexyl)-2-thia-7-azaspiro[3.5]nonane 2,2-dioxide] |
| 1.8 | 1.4 | 11 |  | O=S1(=O)CC2(CCN([C@@H]3CC[C@H](c4ccc(C(F)(F)F)cc4)C3)C2)C1 [Compound 1C, 6-((1R,3S)-3-(4-(trifluoromethyl)phenyl)cyclopentyl)-2-thia-6-azaspiro[3.4]octane 2,2-dioxide] |
| 110 | 16 | 73 |  | O=S1(=O)CC2(CCN([C@H]3CC[C@H](c4ccnc(C(F)(F)F)n4)CC3)C2)C1 [Compound 88, 6-((1r,4r)-4-(2-(Trifluoromethyl)pyrimidin-4-yl)cyclohexyl)-2-thia-6-azaspiro[3.4]octane 2,2-dioxide] |
| 48 | 17 | 300 |  | CC(C)(C)n1nc(C(F)(F)F)cc1[C@H]1CC[C@@H](N2CCC3(CC2)CS(=O)(=O)C3)CC1 [Compound 85B, 7-((1s,4s)-4-(1-(tert-butyl)-3-(trifluoromethyl)-1H-pyrazol-5-yl)cyclohexyl)-2-thia-7-azaspiro[3.5]nonane 2,2-dioxide] |
| 270 | 30 | 61 |  | O=S1(=O)CC2(CCN([C@@H]3CCC[C@H](c4ccc(C(F)(F)F)nc4)C3)CC2)C1 (single isomer, unassigned) [56A*] |
| 4.9 | 2.7 | 35 |  | CC(C)n1nc(-c2cccc(C(F)(F)F)n2)cc1[C@@H]1CC[C@H](N2CCC3(CC2)CS(=O)(=O)C3)C1 (single isomer, unassigned) [46B*] |
| 4 | 3.7 | 31 |  | O=S1(=O)CC2(CCN([C@H]3CC[C@H](c4ncc(C(F)(F)F)cc4Cl)CC3)C2)C1 [Compound 48A, 6-((1r,4r)-4-(3-chloro-5-(trifluoromethyl)pyridin-2-yl)cyclohexyl)-2-thia-6-azaspiro[3.4]octane 2,2-dioxide] |
| 130 | 18 | 150 |  | O=S1(=O)CC2(CCN([C@H]3CC[C@H](c4ccc(C(F)(F)F)nc4)C3)CC2)C1 (single isomer, unassigned) [57D*] |
| 130 | 27 | 69 |  | O=S1(=O)CCC2(CCN([C@H]3CC[C@H](c4ccc(C(F)(F)F)cn4)CC3)C2)CC1 [84B*, 2-((1s,4s)-4-(5-(Trifluoromethyl)pyridin-2-yl)cyclohexyl)-8-thia-2-azaspiro[4.5]decane 8,8-dioxide] |
| 270 | 42 | 470 |  | O=S1(=O)CC2(CCN([C@H]3CC[C@@H](c4ccc(C(F)(F)F)nc4)CC3)CC2)C1 [81B*, 7-((1s,4s)-4-(6-(Trifluoromethyl)pyridin-3-yl)cyclohexyl)-2-thia-7-azaspiro[3.5]nonane 2,2-dioxide] |
| 3.3 | 1 | 96 |  | CC(C)n1nc(-c2ccc(C(F)(F)F)cc2)nc1[C@@H]1CC[C@@H](N2CCC3(C2)CS(=O)(=O)C3)C1 (single isomer, unassigned) [53D*] |
| 18 | 4.9 | 15 |  | O=S1(=O)CC2(CCN([C@H]3CC[C@H](c4ccc(C(F)(F)F)cc4)C3)C2)C1 [Compound 1D, 6-((1S,3S)-3-(4-(trifluoromethyl)phenyl)cyclopentyl)-2-thia-6-azaspiro[3.4]octane 2,2-dioxide] |
| 33 | 8.8 | 12 |  | O=S1(=O)CC2(CCN([C@H]3CC[C@H](c4cc(C(F)(F)F)ncc4Cl)CC3)C2)C1 [Compound 87, 6-((1r,4r)-4-(5-Chloro-2-(trifluoromethyl)pyridin-4-yl)cyclohexyl)-2-thia-6-azaspiro[3.4]octane 2,2-dioxide] |
| 2.5 | 1.3 | 31 |  | CC(C)n1nc(-c2cccc(C(F)(F)F)n2)cc1[C@@H]1CC[C@@H](N2CCC3(CC2)CS(=O)(=O)C3)C1 (single isomer, unassigned) [46A*] |
